This passage reports relative viability results from the supplement of paper PMC10307832.

Holding throughout (experiment): relative viability (nuclei count vs DMSO), 5 days (fraction); higher = more cells survive
Compound in assay [1]: Cc1ccc(C(=O)N(CCCN)[C@@H](c2nc3cc(Cl)ccc3c(=O)n2Cc2ccccc2)C(C)C)cc1 [Ispinesib] + N=C(N)NC(=N)NCCc1ccccc1 [Phenformin] (partner 250 µM)
A digest of the protocol:
(§1)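 Cells from lung cancer lines were seeded into 1536-well plates and, one day later, dosed by pin tool. Treatments were either a single drug or a fixed dose of an anchor drug with five library-drug doses (not always all listed) in √10 steps. After 5 days, nuclei were stained in a one-step fixation (final 0.05% Triton X-100, 1% formaldehyde, 1 ug/ml Hoechst) and counted on 4× images, and relative viability is the treated-to-vehicle nuclei ratio, as the median of duplicate plates.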

Compound in assay [2]: Cc1ccc(C(=O)N(CCCN)[C@@H](c2nc3cc(Cl)ccc3c(=O)n2Cc2ccccc2)C(C)C)cc1 [Ispinesib] + COc1cccc2cc(-c3nc([C@H]4CC[C@H](C(=O)O)CC4)n4ncnc(N)c34)[nH]c12 [OSI-027] (partner 0.5 µM)
A digest of the protocol:
as §1

Compound in assay [3]: C[C@]1(O)C[C@@H](c2nc(-c3ccc4ccc(-c5ccccc5)nc4c3)c3c(N)nccn32)C1 [Linsitinib] + Cc1nc(Nc2ncc(C(=O)Nc3c(C)cccc3Cl)s2)cc(N2CCN(CCO)CC2)n1 [Dasatinib] (partner 0.075 µM)
The essentials:
as §1

Compound in assay [4]: C[C@]1(O)C[C@@H](c2nc(-c3ccc4ccc(-c5ccccc5)nc4c3)c3c(N)nccn32)C1 [Linsitinib] + CS(=O)(=O)CCNCc1ccc(-c2ccc3ncnc(Nc4ccc(OCc5cccc(F)c5)c(Cl)c4)c3c2)o1 [Lapatinib] (partner 2 µM)
The essentials: as §1

In the case of HCC-15, the relative viability in assay [1] (first compound 0.001 µM) is 0.567; in assay [1] (first compound 0.003162 µM) it was 0.48; in assay [1] (first compound 0.01 µM), 0.487; in assay [1] (first compound 0.03162 µM) it was 0.19; in assay [1] (first compound 0.1 µM) it was 0.184; in assay [2] (first compound 0.001 µM), 0.773. Further, the relative viability in assay [2] (first compound 0.003162 µM) was determined as 0.715; in assay [2] (first compound 0.01 µM) it was 0.771; in assay [2] (first compound 0.03162 µM) it was 0.203; in assay [2] (first compound 0.1 µM), 0.178; in assay [3] (first compound 0.01 µM), 0.62; in assay [3] (first compound 0.03162 µM) it was 0.559. For the same cell line, the relative viability in assay [3] (first compound 0.1 µM) was 0.519; in assay [3] (first compound 1 µM), 0.35; in assay [4] (first compound 0.01 µM) it was 0.919; in assay [4] (first compound 0.03162 µM), 0.807; in assay [4] (first compound 0.1 µM), 0.883; in assay [4] (first compound 0.3162 µM), 0.2. In assay [4] (first compound 1 µM), the relative viability amounted to 0.612.
Regarding HCC-78, the relative viability in assay [1] (first compound 0.001 µM) worked out at 0.738; in assay [1] (first compound 0.003162 µM), 0.896; in assay [1] (first compound 0.01 µM) it was 0.743; in assay [1] (first compound 0.03162 µM), 0.51; in assay [1] (first compound 0.1 µM) it was 0.543; in assay [2] (first compound 0.001 µM) it was 0.439. Further, the relative viability turned out to be 0.448 in assay [2] (first compound 0.003162 µM); 0.368 in assay [2] (first compound 0.01 µM); 0.345 in assay [2] (first compound 0.03162 µM); 0.318 in assay [2] (first compound 0.1 µM); 0.365 in assay [3] (first compound 0.01 µM); 0.437 in assay [3] (first compound 0.03162 µM). In addition, the relative viability in assay [3] (first compound 0.1 µM) was 0.238; in assay [3] (first compound 0.3162 µM), 0.554; in assay [3] (first compound 1 µM), 0.265; in assay [4] (first compound 0.01 µM) it was 0.364; in assay [4] (first compound 0.03162 µM), 0.651; in assay [4] (first compound 0.1 µM), 0.514. Moreover, the values for the relative viability in assay [4] (first compound 0.3162 µM) and in assay [4] (first compound 1 µM) were 0.676 and 0.542, respectively.
Regarding HCC-366, the relative viability in assay [1] (first compound 0.001 µM) was found to be 0.635; in assay [1] (first compound 0.003162 µM), 0.633; in assay [1] (first compound 0.01 µM), 0.657; in assay [1] (first compound 0.03162 µM) it was 0.692; in assay [1] (first compound 0.1 µM) it was 0.0242; in assay [2] (first compound 0.001 µM) it was 0.944. In addition, the relative viability in assay [2] (first compound 0.003162 µM) was 1.01; in assay [2] (first compound 0.01 µM), 1.33; in assay [2] (first compound 0.03162 µM), 0.204; in assay [2] (first compound 0.1 µM) it was 0.0402; in assay [3] (first compound 0.01 µM), 0.644; in assay [3] (first compound 0.03162 µM), 0.606. For the same cell line, the relative viability in assay [3] (first compound 0.1 µM) is 0.488; in assay [3] (first compound 0.3162 µM), 0.543; in assay [3] (first compound 1 µM) it was 0.174; in assay [4] (first compound 0.01 µM), 1.14; in assay [4] (first compound 0.03162 µM), 0.8; in assay [4] (first compound 0.1 µM), 1.07. The figures for the relative viability in assay [4] (first compound 0.3162 µM) and in assay [4] (first compound 1 µM) were 0.326 and 0.874, respectively.
For HCC-827, the relative viability in assay [1] (first compound 0.001 µM) stood at 0.424; in assay [1] (first compound 0.003162 µM), 0.432; in assay [1] (first compound 0.01 µM), 0.457; in assay [1] (first compound 0.03162 µM), 0.332; in assay [1] (first compound 0.1 µM), 0.257; in assay [2] (first compound 0.001 µM) it was 0.653. Besides, the relative viability in assay [2] (first compound 0.003162 µM) stood at 0.801; in assay [2] (first compound 0.01 µM), 0.887; in assay [2] (first compound 0.03162 µM), 0.664; in assay [2] (first compound 0.1 µM), 0.437; in assay [3] (first compound 0.01 µM), 0.398; in assay [3] (first compound 0.03162 µM), 0.389. The relative viability turned out to be 0.311 in assay [3] (first compound 0.1 µM); 0.597 in assay [3] (first compound 0.3162 µM); 0.423 in assay [3] (first compound 1 µM); 0.208 in assay [4] (first compound 0.01 µM); 0.197 in assay [4] (first compound 0.03162 µM); 0.17 in assay [4] (first compound 0.1 µM). The relative viability in assay [4] (first compound 1 µM) came out at 0.224.
